Experimental data taken from ChEMBL document CHEMBL1201862, “PubChem BioAssay data set” (2004).
The source made the active and inactive calls.

Experiments:
[1] = target: T1, Leucine aminopeptidase (Plasmodium falciparum 3D7, UniProt Q8IL11); assay: P. falciparum M17LAP inhibitors, primary screen, biochemical, fluorogenic H-Leu-NHMec substrate, 1536-well (AID 1619); type: functional
T1 sequence (Q8IL11 whole entry): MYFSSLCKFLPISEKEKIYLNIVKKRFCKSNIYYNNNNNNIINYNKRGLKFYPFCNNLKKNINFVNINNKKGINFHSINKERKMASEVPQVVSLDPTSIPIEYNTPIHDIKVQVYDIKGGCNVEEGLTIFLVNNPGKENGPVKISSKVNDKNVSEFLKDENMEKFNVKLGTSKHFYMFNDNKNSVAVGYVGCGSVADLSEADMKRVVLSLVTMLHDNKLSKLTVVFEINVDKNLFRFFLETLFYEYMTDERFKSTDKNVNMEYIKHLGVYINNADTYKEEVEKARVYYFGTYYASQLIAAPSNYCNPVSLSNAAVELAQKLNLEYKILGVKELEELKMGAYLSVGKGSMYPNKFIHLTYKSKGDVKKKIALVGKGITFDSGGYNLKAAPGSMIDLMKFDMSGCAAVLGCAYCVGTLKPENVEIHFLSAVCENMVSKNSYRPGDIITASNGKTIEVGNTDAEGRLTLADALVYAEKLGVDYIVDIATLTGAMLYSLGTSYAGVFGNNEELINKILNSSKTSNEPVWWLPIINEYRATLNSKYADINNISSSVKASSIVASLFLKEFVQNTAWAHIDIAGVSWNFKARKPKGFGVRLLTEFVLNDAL

[2] = target: Procathepsin L (Homo sapiens, UniProt P07711); assay: cathepsin L inhibitors, dose response, counter-screen for M1/M17 aminopeptidase inhibitor project, biochemical, QFRET, 1536-well (AID 2214)
[3] = target: T2, Aspartyl aminopeptidase (Plasmodium falciparum 3D7, UniProt Q8I2J3); assay: Counterscreen for inhibitors of M1 and M17 aminopeptidases: QFRET-based biochemical high throughput dose response assay for inhibitors of the Plasmodium falciparum M18 Aspartyl Aminopeptidase (PFM18AAP). [Related PubChem assays: 1619 (Screening assay (M17LAP inhibitors).), 1445 (Screening assay (M1AAP inhibitors).)]
T2 sequence (Q8I2J3 whole entry): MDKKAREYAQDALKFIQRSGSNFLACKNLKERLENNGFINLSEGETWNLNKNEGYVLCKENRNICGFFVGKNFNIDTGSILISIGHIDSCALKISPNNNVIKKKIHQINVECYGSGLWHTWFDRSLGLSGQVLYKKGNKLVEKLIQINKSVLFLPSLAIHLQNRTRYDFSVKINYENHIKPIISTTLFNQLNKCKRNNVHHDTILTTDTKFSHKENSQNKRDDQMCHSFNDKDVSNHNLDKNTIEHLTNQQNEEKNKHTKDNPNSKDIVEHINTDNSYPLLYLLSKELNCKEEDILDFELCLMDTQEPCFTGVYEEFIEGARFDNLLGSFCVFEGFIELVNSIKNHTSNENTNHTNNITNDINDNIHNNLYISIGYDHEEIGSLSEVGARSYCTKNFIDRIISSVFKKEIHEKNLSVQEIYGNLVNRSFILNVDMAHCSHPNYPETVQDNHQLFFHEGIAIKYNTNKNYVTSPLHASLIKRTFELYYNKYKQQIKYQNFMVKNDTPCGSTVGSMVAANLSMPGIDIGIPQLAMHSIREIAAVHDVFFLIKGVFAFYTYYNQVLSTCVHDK

[4] = target: T3, Cytochrome P450 2C19 (Homo sapiens, UniProt P33261); assay: Cytochrome panel assay with activity outcomes. Panel member name: p450-cyp2c19 Compounds with AC50 equal or less than 10 uM are considered active; type: functional; conditions: read-out: AC50
[5] = target: T3, Cytochrome P450 2C19; assay: qHTS Assay for Inhibitors and Substrates of Cytochrome P450 2C19. [Related pubchem assays: 410 ]; type: ADME; conditions: read-out: Potency
[6] = target: T4, Replicative DNA helicase DnaB (Mycobacterium tuberculosis, UniProt P9WMR3); assay: DnaB intein splicing inhibitors, dose response, biochemical, cell-free fluorescence (AID 449749); type: functional
T4 sequence (P9WMR3 whole entry): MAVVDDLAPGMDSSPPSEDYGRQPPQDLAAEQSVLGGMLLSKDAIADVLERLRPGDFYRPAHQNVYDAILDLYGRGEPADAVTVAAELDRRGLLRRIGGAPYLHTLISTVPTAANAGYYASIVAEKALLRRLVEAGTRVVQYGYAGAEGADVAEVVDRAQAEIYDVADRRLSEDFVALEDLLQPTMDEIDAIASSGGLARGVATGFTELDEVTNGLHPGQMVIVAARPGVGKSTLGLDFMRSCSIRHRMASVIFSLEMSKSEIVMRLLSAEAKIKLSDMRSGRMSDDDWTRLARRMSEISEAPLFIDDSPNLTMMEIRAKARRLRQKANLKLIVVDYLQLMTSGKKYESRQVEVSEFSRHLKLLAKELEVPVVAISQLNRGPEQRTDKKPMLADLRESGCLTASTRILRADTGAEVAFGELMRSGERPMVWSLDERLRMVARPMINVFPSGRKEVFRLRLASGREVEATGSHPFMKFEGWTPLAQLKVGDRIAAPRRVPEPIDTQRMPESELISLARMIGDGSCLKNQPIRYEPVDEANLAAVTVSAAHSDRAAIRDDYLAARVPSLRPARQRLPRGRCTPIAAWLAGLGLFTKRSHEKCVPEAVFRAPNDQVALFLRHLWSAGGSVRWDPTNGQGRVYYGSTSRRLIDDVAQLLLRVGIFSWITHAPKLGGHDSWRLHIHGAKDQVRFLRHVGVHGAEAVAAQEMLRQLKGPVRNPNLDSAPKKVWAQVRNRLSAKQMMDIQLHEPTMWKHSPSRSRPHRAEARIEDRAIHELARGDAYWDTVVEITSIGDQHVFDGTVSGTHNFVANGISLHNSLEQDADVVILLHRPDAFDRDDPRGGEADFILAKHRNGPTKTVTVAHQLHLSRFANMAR

[7] = test system: Vero; assay: cells; type: functional, cell-based; conditions: Chlorocebus sabaeus
[8] = target: T5, Heat shock factor protein 1 (Mus musculus, UniProt P38532); assay: HSF1 potentiators in luciferase reporter cells, confirmation, cell-based, NIH3T3, luminescence, dose retest (AID 435004); type: functional;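 note: stress induced by proteasome inhibitor MG132 added 30 min after compound; luciferase reporter driven by HSF1 response element in NIH3T3 cells; actives raise luminescence as potentiators of the MG132 stress response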
T5 sequence (P38532 whole entry): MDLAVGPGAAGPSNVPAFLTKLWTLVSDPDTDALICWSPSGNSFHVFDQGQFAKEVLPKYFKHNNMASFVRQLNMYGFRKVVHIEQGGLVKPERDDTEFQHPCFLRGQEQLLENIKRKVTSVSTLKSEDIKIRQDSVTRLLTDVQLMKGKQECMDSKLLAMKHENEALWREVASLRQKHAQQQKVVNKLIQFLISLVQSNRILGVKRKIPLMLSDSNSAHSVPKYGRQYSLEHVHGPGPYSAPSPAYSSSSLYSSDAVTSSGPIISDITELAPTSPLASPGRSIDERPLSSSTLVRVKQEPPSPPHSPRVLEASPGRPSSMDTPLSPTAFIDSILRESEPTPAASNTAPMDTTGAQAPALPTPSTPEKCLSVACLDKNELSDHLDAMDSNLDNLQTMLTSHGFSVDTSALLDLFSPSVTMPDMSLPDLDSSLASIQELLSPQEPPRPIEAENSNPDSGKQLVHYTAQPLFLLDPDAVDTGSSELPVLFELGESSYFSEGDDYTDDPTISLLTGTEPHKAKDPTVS

[9] = target: T6, Protein RecA (Mycobacterium tuberculosis, UniProt P9WHJ3); assay: Fluorescence Cell-Free Homogeneous Dose Retest to Identify Inhibitors of RecA-Intein Splicing Activity. [Related pubchem assays (depositor defined):AID2097, AID2223, AID489010, AID492950]; type: functional
T6 sequence (P9WHJ3 whole entry): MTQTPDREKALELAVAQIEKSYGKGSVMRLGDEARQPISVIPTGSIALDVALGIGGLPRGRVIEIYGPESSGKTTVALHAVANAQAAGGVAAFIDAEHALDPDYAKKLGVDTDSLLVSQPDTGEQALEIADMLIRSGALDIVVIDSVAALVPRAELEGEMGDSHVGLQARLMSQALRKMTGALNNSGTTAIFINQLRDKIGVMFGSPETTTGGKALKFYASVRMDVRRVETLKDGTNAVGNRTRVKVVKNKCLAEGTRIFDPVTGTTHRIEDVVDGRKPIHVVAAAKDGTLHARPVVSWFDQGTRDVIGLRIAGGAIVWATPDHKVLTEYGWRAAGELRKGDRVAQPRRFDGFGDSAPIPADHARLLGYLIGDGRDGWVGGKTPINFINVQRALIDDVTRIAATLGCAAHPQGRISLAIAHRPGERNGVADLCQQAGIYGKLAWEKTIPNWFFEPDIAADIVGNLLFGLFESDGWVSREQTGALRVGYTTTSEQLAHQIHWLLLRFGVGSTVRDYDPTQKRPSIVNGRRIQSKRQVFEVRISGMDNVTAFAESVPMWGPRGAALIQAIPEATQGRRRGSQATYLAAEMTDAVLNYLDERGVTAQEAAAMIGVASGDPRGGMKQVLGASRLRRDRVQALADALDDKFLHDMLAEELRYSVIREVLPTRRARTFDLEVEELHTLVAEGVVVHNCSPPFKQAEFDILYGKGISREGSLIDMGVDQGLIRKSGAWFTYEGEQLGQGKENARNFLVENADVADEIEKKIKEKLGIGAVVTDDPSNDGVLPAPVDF

[10] = test system: Vero; assay: host cell cytotoxicity of antiviral hits, dose response, cytotoxicity control for West Nile virus antiviral project, secondary assay (AID 1650); type: functional; conditions: Chlorocebus sabaeus
[11] = test system: Vero; assay: cells; type: functional; conditions: Chlorocebus sabaeus
[12] = target: Cytochrome P450 2C9 (Homo sapiens, UniProt P11712); conditions: Potency
[13] = target: Cytochrome P450 2D6 (Homo sapiens, UniProt P10635); assay: qHTS Assay for Inhibitors and Substrates of Cytochrome P450 2D6. [Related pubchem assays: 410 ]; type: ADME; conditions: read-out: Potency
[14] = NIH:OVCAR-3 ovarian cancer cell cytotoxicity, dose response, PAX8 inhibitor project, plate reader, dry powder samples (AID 743044); type: functional, cell-based
[15] = P. falciparum Dd2 growth inhibitors, dose response, SYBR Green, dry powder samples, set 9 (AID 1159568); type: functional, cell-based
[16] = P. falciparum Dd2 growth inhibitors, dose response, SYBR Green, cherry-picked samples (AID 1159567); type: functional, cell-based
[17] = target: Paired box protein Pax-8 (Homo sapiens, UniProt Q06710); assay: inhibitors of PAX8-driven TPO luciferase reporter, dose response, RMG-I cells, cherry-pick (AID 687027); type: functional, cell-based;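 note: luciferase reporter driven by Pax8 target thyroperoxidase promoter measured by SteadyGlo luminescence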
[18] = HepG2 cell cytotoxicity, dose response, cytotoxicity control, cherry-picked samples (AID 1159577); type: functional, cell-based
[19] = P. falciparum Dd2 growth inhibitors, dose response, SYBR Green, dry powder samples (AID 1159566); type: functional, cell-based;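 note: potency for growth inhibition with lower SYBR green DNA signal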
[20] = P. falciparum 3D7-ScDHODH growth inhibitors, dose response, SYBR Green, dry powder samples (AID 1159570); type: functional, cell-based;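 note: parasite growth measured after 72 hours of compound exposure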
[21] = P. falciparum ATP4 D1247Y mutant growth inhibitors, dose response, NITD609-resistant line, SYBR Green, dry powder (AID 1159571); type: functional, cell-based;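 note: parasites synchronized at ring stage by sorbitol before testing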
[22] = Plasmodium falciparum Dd2 Sybr green parasite growth Measured in Cell-Based and Microorganism Combination System Using Plate Reader - 2153-01_Inhibitor_Dose_DryPowder_Activity_Set3.; type: functional
[23] = HepG2 cell cytotoxicity, dose response, cytotoxicity control, plate reader, dry powder samples (AID 1159569); type: functional, cell-based;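 note: inhibitor potency with signal falling toward the positive control level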
[24] = cytotoxicity toward HCT116 cells – cell-based, CellTiter-Glo luminescence, IC50, dose response (AID 1117332); type: functional; conditions: HCT-116
[25] = cytotoxicity toward HT-29 cells – cell-based, CellTiter-Glo luminescence, IC50, dose response (AID 1117330); type: functional
[26] = CellTiter-Glo luminescent dose response of DLD-1 viability loss (AID 1117352); type: functional
[27] = Concentration-dependent survival of SW480 colon cancer line, luminescence detection with CellTiter-Glo, half-maximal inhibitory concentration (AID 1117338); type: functional
[28] = cytotoxicity toward Colo320 cells – cell-based, CellTiter-Glo luminescence, IC50, dose response (AID 1117334); type: functional; conditions: COLO 320
[29] = cytotoxicity in HEK-293T cells, dose response, cytotoxicity control for TCR NF-kB inhibitor project, luminescence, T-cell screen hits (AID 489026); type: functional, cell-based;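 note: cells exposed to compound about 14 hours before the viability readout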
[30] = RKO cell viability reduction, dose response, CellTiter-Glo luminescence (AID 1117322); type: functional
[31] = SNU-C1 cell viability reduction, dose response, CellTiter-Glo luminescence (AID 1117323); type: functional, cell-based

T3 sequence (P33261 whole entry): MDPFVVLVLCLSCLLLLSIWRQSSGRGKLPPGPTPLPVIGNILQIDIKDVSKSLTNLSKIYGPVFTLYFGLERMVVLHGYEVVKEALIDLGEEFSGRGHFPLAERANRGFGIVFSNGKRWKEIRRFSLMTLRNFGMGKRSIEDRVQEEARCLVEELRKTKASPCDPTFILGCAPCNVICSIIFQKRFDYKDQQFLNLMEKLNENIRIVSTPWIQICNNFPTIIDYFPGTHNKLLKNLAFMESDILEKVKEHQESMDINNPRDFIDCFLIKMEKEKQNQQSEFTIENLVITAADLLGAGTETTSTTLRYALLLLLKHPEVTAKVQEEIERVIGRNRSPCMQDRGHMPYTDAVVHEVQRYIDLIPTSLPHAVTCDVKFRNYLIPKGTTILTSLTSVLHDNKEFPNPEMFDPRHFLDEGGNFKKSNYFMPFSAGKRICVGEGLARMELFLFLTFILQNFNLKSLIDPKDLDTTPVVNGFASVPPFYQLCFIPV
Chain of Procathepsin L (P07711 whole entry): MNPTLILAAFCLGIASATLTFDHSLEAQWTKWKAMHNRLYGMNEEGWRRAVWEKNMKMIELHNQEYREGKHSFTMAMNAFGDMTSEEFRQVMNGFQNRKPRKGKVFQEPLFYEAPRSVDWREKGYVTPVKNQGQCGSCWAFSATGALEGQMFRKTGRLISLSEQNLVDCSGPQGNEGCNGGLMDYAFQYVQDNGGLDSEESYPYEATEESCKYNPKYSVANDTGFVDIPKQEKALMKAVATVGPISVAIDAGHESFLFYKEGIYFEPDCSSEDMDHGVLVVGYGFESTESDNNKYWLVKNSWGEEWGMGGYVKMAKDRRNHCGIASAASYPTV
Chain of Cytochrome P450 2C9 (P11712 whole entry): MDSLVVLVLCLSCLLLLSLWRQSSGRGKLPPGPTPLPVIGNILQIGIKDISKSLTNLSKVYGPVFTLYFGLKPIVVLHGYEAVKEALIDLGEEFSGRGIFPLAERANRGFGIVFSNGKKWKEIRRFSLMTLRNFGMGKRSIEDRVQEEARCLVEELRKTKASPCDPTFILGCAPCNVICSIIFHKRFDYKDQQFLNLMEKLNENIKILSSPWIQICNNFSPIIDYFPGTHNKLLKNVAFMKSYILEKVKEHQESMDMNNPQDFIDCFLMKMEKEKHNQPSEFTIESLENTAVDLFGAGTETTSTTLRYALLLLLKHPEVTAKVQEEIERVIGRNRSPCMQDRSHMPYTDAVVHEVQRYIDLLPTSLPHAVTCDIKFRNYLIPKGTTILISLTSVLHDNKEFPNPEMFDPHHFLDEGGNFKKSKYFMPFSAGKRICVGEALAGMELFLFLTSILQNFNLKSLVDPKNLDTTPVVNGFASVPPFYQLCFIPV
Chain of Paired box protein Pax-8 (Q06710 whole entry): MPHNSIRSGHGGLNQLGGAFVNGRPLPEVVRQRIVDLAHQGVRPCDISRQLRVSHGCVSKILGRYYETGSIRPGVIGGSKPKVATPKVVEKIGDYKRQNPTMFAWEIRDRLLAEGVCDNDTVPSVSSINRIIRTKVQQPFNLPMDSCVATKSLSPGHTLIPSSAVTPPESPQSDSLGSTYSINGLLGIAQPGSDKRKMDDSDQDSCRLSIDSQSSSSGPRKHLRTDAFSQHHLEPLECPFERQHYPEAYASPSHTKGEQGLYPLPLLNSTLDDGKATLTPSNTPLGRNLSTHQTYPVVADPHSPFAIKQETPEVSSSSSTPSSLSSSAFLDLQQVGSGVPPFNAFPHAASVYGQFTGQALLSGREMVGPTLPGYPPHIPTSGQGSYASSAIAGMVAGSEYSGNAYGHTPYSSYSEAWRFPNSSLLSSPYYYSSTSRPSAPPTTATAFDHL
Chain of Cytochrome P450 2D6 (P10635 whole entry): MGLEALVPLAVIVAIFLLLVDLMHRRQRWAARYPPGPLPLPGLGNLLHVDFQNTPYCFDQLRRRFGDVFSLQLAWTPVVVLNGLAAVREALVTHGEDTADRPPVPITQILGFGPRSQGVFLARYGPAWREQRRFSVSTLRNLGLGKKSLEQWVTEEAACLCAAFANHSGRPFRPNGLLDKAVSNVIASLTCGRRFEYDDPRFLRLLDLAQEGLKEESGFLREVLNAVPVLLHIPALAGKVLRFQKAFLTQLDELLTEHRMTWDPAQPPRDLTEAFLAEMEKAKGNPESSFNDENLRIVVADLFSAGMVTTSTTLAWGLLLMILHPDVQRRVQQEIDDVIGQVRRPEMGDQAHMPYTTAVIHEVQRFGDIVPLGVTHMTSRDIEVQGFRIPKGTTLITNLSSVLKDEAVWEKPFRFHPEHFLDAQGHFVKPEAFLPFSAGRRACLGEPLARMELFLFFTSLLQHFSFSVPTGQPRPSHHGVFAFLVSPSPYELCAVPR

COC(=O)c1c(NC(=O)C2CC=CCC2C(=O)O)sc(C)c1C (centres undefined)
> 73.5 µM (not active): IC50 [3]
> 59.6 µM (not active): IC50 [2]
active: IC50 [1] 4.32 µM

COc1cc2c(cc1C(F)(F)F)N(C(=O)Nc1cc(F)cc(-c3cccnc3)c1)CC2
inconclusive: AC50 [4] 10 µM | AC50 [5] 1 µM

Cc1ccccc1NC(=O)C(=Cc1ccc(C(=O)O)cc1)C(=O)Nc1ccccc1C
active: AC50 [6] 3.66 µM | IC50 [7] > 25 µM | EC50 [8] 29 µM | EC50 [9] 5.08 µM | CC50 [10] 7.39 µM | CC50 [11] 14.7 µM

COC(=O)NC(c1ccco1)C(C(C)=O)C(=O)OC (centres undefined)
inconclusive: AC50 [12] 1 µM | AC50 [5] 6.31 µM | AC50 [13] 3.16 µM

COc1cccc(S(=O)(=O)N2CCCCN3[C@@H](CO)[C@@H](c4ccc(C#CCC(C)C)cc4)[C@@H]3C2)c1
active: AC50 [14] 43.3 µM | AC50 [15] 1.48 µM | AC50 [16] 0.991 µM | AC50 [17] 14.6 µM | AC50 [18] 11.8 µM

CCCNC(=O)Nc1ccc2c(c1)OC[C@@H](C)N(Cc1ccccc1)C[C@@H](C)[C@H](OC)CN(C)C2=O
active: AC50 [19] 0.154 µM | AC50 [20] 3.25 µM | AC50 [21] 0.828 µM | AC50 [22] 0.826 µM | AC50 [15] 0.307 µM | AC50 [16] 1.43 µM

CCCNC(=O)N1[C@H](C#N)[C@H](c2ccc(-c3cccnc3)cc2)[C@H]1CO
active: AC50 [19] 0.822 µM | AC50 [21] 1.16 µM | AC50 [22] 0.927 µM | AC50 [16] 1.49 µM
inactive: AC50 [20] > 39 µM | AC50 [23] > 100 µM

Nc1ncn([C@@H]2O[C@H](CO)[C@@H](O)[C@H]2O)c(=O)n1 [AZACITIDINE]
inactive: IC50 [25] 12.5 µM | IC50 [27] > 6.67 µM | IC50 [28] 12.3 µM | IC50 [29] > 80 µM | IC50 [30] 7.4 µM
active: IC50 [24] 3.04 µM | IC50 [26] 2.55 µM | IC50 [31] 1.8 µM
